The test system of test [1] is microorganisms. The note with it: 1 m^3 air comprising 0.3 ppm sprayed hydrogen peroxide; TSA growth medium.
In test [2] the test system is microorganisms. Kind of test: Level of recovery of microorganisms on TSA medium with 1% sodium pyruvate, after impact of air comprising hydrogen peroxide vapour (Examples 3 and 4). The class given is cell-based. The note with it: 1 m^3 air, 8 ppm hydrogen peroxide vapour; TSA + 1% by weight sodium pyruvate. The protocol:
Example 1 was reproduced but with the use of 1 m^3 of air comprising 8 ppm (instead of 0.3 ppm) of hydrogen peroxide vapour (instead of sprayed hydrogen peroxide which was impacted, firstly, on a TSA growth medium, then, secondly, on the TSA medium to which 1% by weight of sodium pyruvate was added.
The results obtained are shown in FIG. 2, in which the x-axis represents the nature of the microorganisms and the y-axis represents the level of recovery.
Example 3 was reproduced by sampling 1 m^3 of air comprising 8 ppm of hydrogen peroxide which were impacted, firstly, on the same TSA growth medium to which 1% by weight of sodium pyruvate was added, not sterilized by the action of gamma radiation. Then, secondly, the same test was repeated but, this time, on the same growth medium sterilized by the action of gamma radiation.
The results obtained are shown in FIG. 3, in which the x-axis represents the nature of the microorganisms and the y-axis represents the level of recovery.

Test [3] deals with Miccrococus luteus ATCC9342. The experiment in a line: Tolerance in drastic conditions: 100 and 300 ppm hydrogen peroxide, 1% and 5% pyruvate in TSA (Example 5, part 3, Table I). The class given is cell-based, Miccrococcus luteus. Particulars: hydrogen peroxide 300 ppm; pyruvate 5%. The source says:
The conditions of Example 3 were reproduced using high concentrations of pyruvate (≧1%), in the presence or absence of hydrogen peroxide in the gaseous environment.
3/ Tolerance of Miccrococcus luteus in drastic conditions, when hydrogen peroxide is raised up to 300 ppm in the gaseous environment and the concentration of pyruvate is up to 5% by weight of agar growth medium.
Miccrococcus luteus growth has been monitored using respectively 100 ppm and 300 ppm of hydrogen peroxide, whereas the concentration of pyruvate by weight of TSA agar growth medium was 1% and 5%.

For the compound `OO` [hydrogen peroxide], in test [1], the “effect on formation of colonies of microorganisms” value is “inhibiting of the formation of the colonies of microorganisms”.
As for `CC(=O)C(=O)[O-].[Na+]` [sodium pyruvate], in test [2], the “formation and counting of colonies of microorganisms” value was “permits the formation and counting of colonies of microorganisms”. Besides, the “growth of Miccrococcus luteus” value in test [3] is “enable growth of Miccrococcus luteus”.
